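In this assay, cells in 96-well plates receive the compound at five concentrations for 48 hours. Endpoints are linearly interpolated between the surrounding concentrations. GI50 = concentration required for 50% inhibition of growth.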 The source made the active and inactive calls. Rule as the data show it: active = GI50 up to about 1.1 µM and inactive = higher.
Tests used:
Test in all cases: NCI tumour cell line growth inhibition, 48 h
[1] = test system: NCI/ADR-RES
[2] = test system: HOP-92
[3] = test system: SF-295
[4] = test system: SK-MEL-28
[5] = test system: HCT-15
[6] = test system: M14
[7] = test system: K562
[8] = test system: UACC-257
[9] = test system: NCI-H23
[10] = test system: 786-0
[11] = test system: MOLT-4
[12] = test system: U-251
[13] = test system: SK-MEL-5
[14] = test system: OVCAR-8
[15] = test system: TK-10
[16] = test system: RXF 393
[17] = test system: CAKI-1
[18] = test system: SNB-75

Compound	GI50 [1]	GI50 [2]	GI50 [3]	GI50 [4]	GI50 [5] [µM]	GI50 [6]	GI50 [7]	GI50 [8]	GI50 [9]	GI50 [10]	GI50 [11]	GI50 [12]	GI50 [13]	GI50 [14]	GI50 [15]	GI50 [16]	GI50 [17]	GI50 [18]
COc1c(NC(C)=O)c2ccccc2c2ccccc12	> 100 µM (inactive)	42.2 µM (inactive)	> 100 µM (inactive)	> 100 µM (inactive)	> 100	> 100 µM (inactive)	75 µM (inactive)	> 100 µM (inactive)	> 100 µM (inactive)	> 100 µM (inactive)	66.5 µM (inactive)	> 100 µM (inactive)	> 100 µM (inactive)	> 100 µM (inactive)	> 100 µM (inactive)	> 100 µM (inactive)		
O=[N+]([O-])C(/C=C(\Cl)[N+](=O)[O-])=C(N1CCCCC1)N1CCCCC1	26.9 µM (inactive)	> 100 µM (inactive)	> 100 µM (inactive)	70.8 µM (inactive)	25.3	20.1 µM (inactive)	27 µM (inactive)	25.3 µM (inactive)	32.9 µM (inactive)	36.6 µM (inactive)	30.7 µM (inactive)	65 µM (inactive)	21.7 µM (inactive)	44.8 µM (inactive)	> 100 µM (inactive)	49.4 µM (inactive)	> 100 µM (inactive)	
O=C(O)c1cccc2cccc(-c3cccc4cccc(C(=O)O)c34)c12	> 100 µM (inactive)		> 100 µM (inactive)	> 100 µM (inactive)	> 100	> 100 µM (inactive)	> 100 µM (inactive)	> 100 µM (inactive)	> 100 µM (inactive)	> 100 µM (inactive)		> 100 µM (inactive)	> 100 µM (inactive)	> 100 µM (inactive)	> 100 µM (inactive)	> 100 µM (inactive)	> 100 µM (inactive)	> 100 µM (inactive)
C[C@]12CCC(=O)C=C1C[C@@H](O)[C@@H]1[C@@H]2CC[C@@]2(C)[C@H]1CC[C@]2(C)O	> 100 µM (inactive)	> 100 µM (inactive)	> 100 µM (inactive)	> 100 µM (inactive)	> 100	> 100 µM (inactive)	> 100 µM (inactive)	> 100 µM (inactive)	> 100 µM (inactive)	> 100 µM (inactive)		> 100 µM (inactive)	> 100 µM (inactive)	> 100 µM (inactive)	> 100 µM (inactive)	> 100 µM (inactive)	> 100 µM (inactive)	> 100 µM (inactive)
OCC(S)CS.[Bi] (centres undefined)	36.1 µM (inactive)	23.7 µM (inactive)	48.2 µM (inactive)	12 µM (inactive)	15	8.36 µM (inactive)	5.68 µM (inactive)	13 µM (inactive)	17.1 µM (inactive)	11.2 µM (inactive)		15.1 µM (inactive)	31.4 µM (inactive)	19.5 µM (inactive)	17.8 µM (inactive)	10.7 µM (inactive)	11.8 µM (inactive)	11.1 µM (inactive)
CCOP(=O)(OCC)C(c1ccc(F)cc1)N(C(=O)NC(F)(F)F)c1ccc(OC)cc1 (centres undefined)	> 100 µM (inactive)		> 100 µM (inactive)	> 100 µM (inactive)	> 100	> 100 µM (inactive)	> 100 µM (inactive)	> 100 µM (inactive)	> 100 µM (inactive)	> 100 µM (inactive)	> 100 µM (inactive)	> 100 µM (inactive)	> 100 µM (inactive)	> 100 µM (inactive)	> 100 µM (inactive)	> 100 µM (inactive)	> 100 µM (inactive)	> 100 µM (inactive)
CC12c3c4ccc(C=O)c3Oc3ccc(C=O)c(c31)Oc1ccc(C=O)c(c12)O4	> 25 µM (inactive)	> 25 µM (inactive)	> 25 µM (inactive)	> 25 µM (inactive)	> 25	> 25 µM (inactive)	> 25 µM (inactive)	> 25 µM (inactive)	> 25 µM (inactive)	> 25 µM (inactive)	> 25 µM (inactive)	> 25 µM (inactive)		> 25 µM (inactive)		> 25 µM (inactive)	> 25 µM (inactive)	> 25 µM (inactive)
N#CCCN(CCC#N)c1ccc(/C=C2\N=C(c3ccccc3)N(c3ccc(C(=O)O)cc3)C2=O)cc1	> 100 µM (inactive)	6.28 µM (inactive)	48.8 µM (inactive)	36 µM (inactive)	40.8	72.1 µM (inactive)	38.2 µM (inactive)	37.2 µM (inactive)		52 µM (inactive)	0.641 µM (active)	30.2 µM (inactive)	36.6 µM (inactive)	26.2 µM (inactive)	> 100 µM (inactive)	40.7 µM (inactive)		
O=C1N=C2SC(=S)N=C(S)N2NC12c1ccccc1-c1ccccc12	3.61 µM (inactive)	> 10 µM (inactive)			> 10	> 10 µM (inactive)	8.17 µM (inactive)	5.68 µM (inactive)	9.4 µM (inactive)	> 10 µM (inactive)	> 10 µM (inactive)	> 10 µM (inactive)	8.49 µM (inactive)	> 10 µM (inactive)	> 10 µM (inactive)		> 10 µM (inactive)	> 10 µM (inactive)
COC1=C2C[C@](OC)(C#CC=CC#CC2O)CC1(C)C (some centres undefined)	> 100 µM (inactive)		> 100 µM (inactive)	> 100 µM (inactive)	> 100		54.8 µM (inactive)	> 100 µM (inactive)	> 100 µM (inactive)	> 100 µM (inactive)	49 µM (inactive)	> 100 µM (inactive)	> 100 µM (inactive)	> 100 µM (inactive)	> 100 µM (inactive)	> 100 µM (inactive)	> 100 µM (inactive)	> 100 µM (inactive)
CCn1c(SCC(=O)NNC(=S)Nc2ccc([N+](=O)[O-])cc2)nc2ccccc2c1=O	> 100 µM (inactive)		58.2 µM (inactive)	57.5 µM (inactive)	47	> 100 µM (inactive)	42.7 µM (inactive)	> 100 µM (inactive)	62.5 µM (inactive)	60.5 µM (inactive)	23.2 µM (inactive)	73.3 µM (inactive)	79.6 µM (inactive)	> 100 µM (inactive)	68.9 µM (inactive)	34.5 µM (inactive)	> 100 µM (inactive)	83.4 µM (inactive)
COc1ccc2[nH]c3c(c2c1)CC(=O)N1CCCC(CC3O)C1 (centres undefined)	> 100 µM (inactive)	> 100 µM (inactive)	> 100 µM (inactive)	> 100 µM (inactive)	> 100		> 100 µM (inactive)	> 100 µM (inactive)	> 100 µM (inactive)	> 100 µM (inactive)		> 100 µM (inactive)	> 100 µM (inactive)	> 100 µM (inactive)	> 100 µM (inactive)		> 100 µM (inactive)	> 100 µM (inactive)
CCCCNC(=S)c1ccc(OC(=O)Nc2ccc(Cl)cc2)cc1	12.4 µM (inactive)		> 100 µM (inactive)	22.3 µM (inactive)	12.2	9.27 µM (inactive)	1.83 µM (inactive)	77.4 µM (inactive)	31.2 µM (inactive)	> 100 µM (inactive)	11.4 µM (inactive)	> 100 µM (inactive)	20 µM (inactive)	12.6 µM (inactive)			18.5 µM (inactive)	
CNC(=O)OCC1=C(COC(=O)NC)C(C)N(c2ccc(OC)cc2)C1 (centres undefined)	60.4 µM (inactive)	> 100 µM (inactive)	88.9 µM (inactive)	> 100 µM (inactive)	> 100	69.5 µM (inactive)	69.2 µM (inactive)	36.7 µM (inactive)	68.9 µM (inactive)	57 µM (inactive)	33.6 µM (inactive)	22.4 µM (inactive)	> 100 µM (inactive)	80.4 µM (inactive)	11.5 µM (inactive)	54.6 µM (inactive)		29.4 µM (inactive)
C#CCCCOc1ncccn1	> 100 µM (inactive)	> 100 µM (inactive)	> 100 µM (inactive)	> 100 µM (inactive)		> 100 µM (inactive)	> 100 µM (inactive)	> 100 µM (inactive)	> 100 µM (inactive)	> 100 µM (inactive)	> 100 µM (inactive)	> 100 µM (inactive)	> 100 µM (inactive)	> 100 µM (inactive)	> 100 µM (inactive)	> 100 µM (inactive)	> 100 µM (inactive)	
Cc1ccc(C(=O)Nc2ccc(CP(=O)(O)O)cc2CP(=O)(O)O)cc1NC(=O)c1cccc(NC(=O)Nc2cccc(C(=O)Nc3cc(C(=O)Nc4ccc(CP(=O)(O)O)cc4CP(=O)(O)O)ccc3C)c2)c1	> 100 µM (inactive)		> 100 µM (inactive)	> 100 µM (inactive)	> 100	> 100 µM (inactive)	> 100 µM (inactive)	> 100 µM (inactive)	> 100 µM (inactive)	> 100 µM (inactive)	> 100 µM (inactive)	> 100 µM (inactive)	> 100 µM (inactive)	> 100 µM (inactive)	> 100 µM (inactive)	> 100 µM (inactive)	> 100 µM (inactive)	> 100 µM (inactive)
C[C@@H]1C(=O)O[C@@H]2C[C@@]1(C)[C@@H]1C(=O)C3(O)OC14C2(C)OC(=O)[C@@]4(O)CCC1C3C(O)C=C2CC=CC(=O)[C@@]21C (some centres undefined)	> 100 µM (inactive)		33.3 µM (inactive)	22.2 µM (inactive)	34.4	21.6 µM (inactive)	23.9 µM (inactive)	31 µM (inactive)		33.1 µM (inactive)	20.7 µM (inactive)	30.8 µM (inactive)	33 µM (inactive)	31.3 µM (inactive)	36.9 µM (inactive)	13.8 µM (inactive)	21.3 µM (inactive)	15.7 µM (inactive)
